Source: ChEMBL document CHEMBL3885881, “DrugMatrix”

Species: Rattus norvegicus
Test: DrugMatrix - Regimen: Daily Repeat
Type: toxicity, organism-based, Sprague-Dawley
Set-up: regimen Daily Repeat, gender Male, age 6-8 weeks
Conditions: in vivo, po, route oral GAVAGE, vehicle 100 % WATER; for ABSOLUTE BASOPHIL / ABSOLUTE EOSINOPHIL / ABSOLUTE LYMPHOCYTE / ABSOLUTE MONOCYTE / ABSOLUTE SEGMENTED NEUTROPHIL / BASOPHIL / EOSINOPHIL / ERYTHROCYTE COUNT / HEMATOCRIT / HEMOGLOBIN / LEUKOCYTE COUNT / LYMPHOCYTE / MEAN CORPUSCULAR HEMOGLOBIN / MEAN CORPUSCULAR HEMOGLOBIN CONCENTRATION / MEAN CORPUSCULAR VOLUME / MONOCYTE / NEUTROPHIL / NUCLEATED RED BLOOD CELLS / PLATELET COUNT: tissue Blood; for ALANINE AMINOTRANSFERASE / ALBUMIN / ALKALINE PHOSPHATASE / ASPARTATE AMINOTRANSFERASE / BLOOD UREA NITROGEN / CARBON DIOXIDE / CHLORIDE / CHOLESTEROL / CREATINE PHOSPHOKINASE / CREATININE / GLUCOSE / LACTATE DEHYDROGENASE / LIPASE / PHOSPHORUS / POTASSIUM / SODIUM / TOTAL BILIRUBIN / TOTAL PROTEIN / URIC ACID: tissue Plasma
[1] = 10 mg/kg, 120 h, dose level Low, time 5 day
[2] = 230 mg/kg, 72 h, dose level High, time 3 day
[3] = 230 mg/kg, 120 h, dose level High, time 5 day

SMILES: CCN(CC)CC#CCOC(=O)C(O)(c1ccccc1)C1CCCCC1 (centres undefined) [OXYBUTYNIN]
- ABSOLUTE BASOPHIL [1]: 0 CELLS/uL
- ABSOLUTE EOSINOPHIL [1]: 0 CELLS/uL
- ABSOLUTE LYMPHOCYTE [1]: 12363 CELLS/uL
- ABSOLUTE MONOCYTE [1]: 41 CELLS/uL
- ABSOLUTE SEGMENTED NEUTROPHIL [1]: 1896 CELLS/uL
- BASOPHIL [1]: 0%
- EOSINOPHIL [1]: 0%
- ERYTHROCYTE COUNT [1]: 5.64 x10E6/uL
- HEMATOCRIT [1]: 34.63%
- HEMOGLOBIN [1]: 13.8 G/DL
- LEUKOCYTE COUNT [1]: 14.3 x10E3/uL
- LYMPHOCYTE [1]: 86.33%
- MEAN CORPUSCULAR HEMOGLOBIN [1]: 24.47 pg
- MEAN CORPUSCULAR HEMOGLOBIN CONCENTRATION [1]: 39.83 G/DL
- MEAN CORPUSCULAR VOLUME [1]: 61.4 fL
- MONOCYTE [1]: 0.33%
- NEUTROPHIL [1]: 13.33%
- NUCLEATED RED BLOOD CELLS [1]: 0 /100WBC
- PLATELET COUNT [1]: 1196.33 x10E3/uL
- ALANINE AMINOTRANSFERASE [1]: 57 u/L
- ALBUMIN [1]: 4.07 G/DL
- ALKALINE PHOSPHATASE [1]: 391.67 u/L
- ASPARTATE AMINOTRANSFERASE [1]: 79 u/L
- BLOOD UREA NITROGEN [1]: 17.67 mg/dL
- CARBON DIOXIDE [1]: 27 mmol/L
- CHLORIDE [1]: 99.67 MEQ/L
- CHOLESTEROL [1]: 67 mg/dL
- CREATINE PHOSPHOKINASE [1]: 306.33 u/L
- CREATININE [1]: 0.2 mg/dL
- GLUCOSE [1]: 152.33 mg/dL
- LACTATE DEHYDROGENASE [1]: 146.67 u/L
- LIPASE [1]: 9 u/L
- PHOSPHORUS [1]: 11.87 mg/dL
- POTASSIUM [1]: 6.33 MEQ/L
- SODIUM [1]: 141.53 MEQ/L
- TOTAL BILIRUBIN [1]: 0.23 mg/dL
- TOTAL PROTEIN [1]: 5.87 G/DL
- URIC ACID [1]: 1.93 mg/dL
- ABSOLUTE BASOPHIL [2]: 0 CELLS/uL
- ABSOLUTE EOSINOPHIL [2]: 99.33 CELLS/uL
- ABSOLUTE LYMPHOCYTE [2]: 11911 CELLS/uL
- ABSOLUTE MONOCYTE [2]: 110.67 CELLS/uL
- ABSOLUTE SEGMENTED NEUTROPHIL [2]: 1845.67 CELLS/uL
- BASOPHIL [2]: 0%
- EOSINOPHIL [2]: 0.67%
- ERYTHROCYTE COUNT [2]: 6.5 x10E6/uL
- HEMATOCRIT [2]: 39.53%
- HEMOGLOBIN [2]: 15.4 G/DL
- LEUKOCYTE COUNT [2]: 13.97 x10E3/uL
- LYMPHOCYTE [2]: 85.67%
- MEAN CORPUSCULAR HEMOGLOBIN [2]: 23.7 pg
- MEAN CORPUSCULAR HEMOGLOBIN CONCENTRATION [2]: 38.93 G/DL
- MEAN CORPUSCULAR VOLUME [2]: 60.77 fL
- MONOCYTE [2]: 0.67%
- NEUTROPHIL [2]: 13%
- NUCLEATED RED BLOOD CELLS [2]: 0 /100WBC
- PLATELET COUNT [2]: 1396.33 x10E3/uL
- ALANINE AMINOTRANSFERASE [2]: 51.33 u/L
- ALBUMIN [2]: 4.33 G/DL
- ALKALINE PHOSPHATASE [2]: 293.33 u/L
- ASPARTATE AMINOTRANSFERASE [2]: 83.33 u/L
- BLOOD UREA NITROGEN [2]: 16 mg/dL
- CARBON DIOXIDE [2]: 29.67 mmol/L
- CHLORIDE [2]: 98 MEQ/L
- CHOLESTEROL [2]: 57.33 mg/dL
- CREATINE PHOSPHOKINASE [2]: 488 u/L
- CREATININE [2]: 0.18 mg/dL
- GLUCOSE [2]: 140.67 mg/dL
- LACTATE DEHYDROGENASE [2]: 180 u/L
- LIPASE [2]: 9.67 u/L
- PHOSPHORUS [2]: 11.4 mg/dL
- POTASSIUM [2]: 6.48 MEQ/L
- SODIUM [2]: 141.17 MEQ/L
- TOTAL BILIRUBIN [2]: 0.23 mg/dL
- TOTAL PROTEIN [2]: 5.87 G/DL
- URIC ACID [2]: 2.47 mg/dL
- ABSOLUTE BASOPHIL [3]: 0 CELLS/uL
- ABSOLUTE EOSINOPHIL [3]: 0 CELLS/uL
- ABSOLUTE LYMPHOCYTE [3]: 14094.33 CELLS/uL
- ABSOLUTE MONOCYTE [3]: 0 CELLS/uL
- ABSOLUTE SEGMENTED NEUTROPHIL [3]: 1405.67 CELLS/uL
- BASOPHIL [3]: 0%
- EOSINOPHIL [3]: 0%
- ERYTHROCYTE COUNT [3]: 6.31 x10E6/uL
- HEMATOCRIT [3]: 37.53%
- HEMOGLOBIN [3]: 15.13 G/DL
- LEUKOCYTE COUNT [3]: 15.5 x10E3/uL
- LYMPHOCYTE [3]: 90.67%
- MEAN CORPUSCULAR HEMOGLOBIN [3]: 23.97 pg
- MEAN CORPUSCULAR HEMOGLOBIN CONCENTRATION [3]: 40.33 G/DL
- MEAN CORPUSCULAR VOLUME [3]: 59.43 fL
- MONOCYTE [3]: 0%
- NEUTROPHIL [3]: 9.33%
- NUCLEATED RED BLOOD CELLS [3]: 0 /100WBC
- PLATELET COUNT [3]: 1402.33 x10E3/uL
- ALANINE AMINOTRANSFERASE [3]: 64.67 u/L
- ALBUMIN [3]: 4.33 G/DL
- ALKALINE PHOSPHATASE [3]: 412.33 u/L
- ASPARTATE AMINOTRANSFERASE [3]: 87 u/L
- BLOOD UREA NITROGEN [3]: 15.67 mg/dL
- CARBON DIOXIDE [3]: 26.67 mmol/L
- CHLORIDE [3]: 100.33 MEQ/L
- CHOLESTEROL [3]: 59.67 mg/dL
- CREATINE PHOSPHOKINASE [3]: 224 u/L
- CREATININE [3]: 0.17 mg/dL
- GLUCOSE [3]: 140.33 mg/dL
- LACTATE DEHYDROGENASE [3]: 208.33 u/L
- LIPASE [3]: 9.33 u/L
- PHOSPHORUS [3]: 10 mg/dL
- POTASSIUM [3]: 6.76 MEQ/L
- SODIUM [3]: 143.4 MEQ/L
- TOTAL BILIRUBIN [3]: 0.2 mg/dL
- TOTAL PROTEIN [3]: 5.9 G/DL
- URIC ACID [3]: 2.23 mg/dL
